ChEMBL document CHEMBL1201862, “PubChem BioAssay data set” (2004)
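All cell lines were grown in 96-well plates and treated with compound for 48 hours. Here, GI50 denotes the concentration required for 50% inhibition of growth.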 Activity calls are given as the source filed them. No stated cut-off is given here; in the data, active = GI50 up to about 1.1 µM and inactive = higher.

What was measured:
Assay in all cases: growth of human tumour cells (NCI), 48 h
A549 = tested on: A549
ACHN = tested on: ACHN
CCRF-CEM = tested on: CCRF-CEM
COLO 205 = tested on: COLO 205
EKVX = tested on: EKVX
HCT-116 = tested on: HCT-116
HCT-15 = tested on: HCT-15
HL-60 = tested on: HL-60
HOP-92 = tested on: HOP-92
IGROV-1 = tested on: IGROV-1
NCI-H23 = tested on: NCI-H23
NCI-H522 = tested on: NCI-H522
OVCAR-3 = tested on: OVCAR-3
OVCAR-8 = tested on: OVCAR-8
SF-268 = tested on: SF-268
SF-539 = tested on: SF-539
SK-MEL-2 = tested on: SK-MEL-2
SN12C = tested on: SN12C
TK-10 = tested on: TK-10
UACC-257 = tested on: UACC-257

Structure (SMILES) | GI50 (A549) | GI50 (ACHN) | GI50 (CCRF-CEM) | GI50 (COLO 205) | GI50 (EKVX) | GI50 (HCT-116) | GI50 (HCT-15) | GI50 (HL-60) | GI50 (HOP-92) | GI50 (IGROV-1) | GI50 (NCI-H23) | GI50 (NCI-H522) | GI50 (OVCAR-3) | GI50 (OVCAR-8) | GI50 (SF-268) | GI50 (SF-539) | GI50 (SK-MEL-2) | GI50 (SN12C) | GI50 (TK-10) | GI50 (UACC-257)
COc1ccc2c(c1)[n+]([O-])c(C(C)=O)c(C)[n+]2[O-] | > 100 µM (inactive) | > 100 µM (inactive) | > 10 µM (inactive) | > 100 µM (inactive) | > 100 µM (inactive) | > 100 µM (inactive) | > 100 µM | > 100 µM (inactive) | > 100 µM (inactive) | > 100 µM (inactive) | > 100 µM (inactive) | > 100 µM (inactive) | > 100 µM (inactive) | > 100 µM (inactive) | > 100 µM (inactive) | > 100 µM (inactive) | > 100 µM (inactive) | > 100 µM (inactive) | > 100 µM (inactive) | > 100 µM (inactive)
COc1ccc2c(Cc3c4ccccc4cc4ccccc34)cncc2c1O | 3.44 µM (inactive) | 2.14 µM (inactive) | 0.36 µM (active) | 17.7 µM (inactive) | 8.22 µM (inactive) | 1.48 µM (inactive) | 1.15 µM | 1.87 µM (inactive) | 1.81 µM (inactive) | 2.92 µM (inactive) | 2.37 µM (inactive) | 0.698 µM (active) | 1.98 µM (inactive) | 1.1 µM (active) | 3.79 µM (inactive) | 0.245 µM (active) | 2.87 µM (inactive) | 5.01 µM (inactive) | 3.94 µM (inactive) | 2.32 µM (inactive)
O=C(CCCN1CCC(C(O)c2ccc(F)cc2)CC1)c1ccc(F)cc1 (stereo not given) | 64 µM (inactive) | 50.6 µM (inactive) | 76.2 µM (inactive) | 55.7 µM (inactive) | 62.1 µM (inactive) | 57 µM (inactive) | 62.2 µM | 35.9 µM (inactive) | 20.6 µM (inactive) | 61.9 µM (inactive) | 66.5 µM (inactive) | 66.8 µM (inactive) | 57 µM (inactive) | 64.7 µM (inactive) | 59.6 µM (inactive) | 59.4 µM (inactive) | 57.4 µM (inactive) | 71.9 µM (inactive) | 41.4 µM (inactive) | 60.7 µM (inactive)
CO/C(=N\N=Cc1ccccc1)c1ccncc1 | > 100 µM (inactive) | > 100 µM (inactive) | > 100 µM (inactive) | > 100 µM (inactive) | > 100 µM (inactive) | > 100 µM (inactive) | > 100 µM | > 100 µM (inactive) | > 100 µM (inactive) | > 100 µM (inactive) | > 100 µM (inactive) | 68.9 µM (inactive) | > 100 µM (inactive) | > 100 µM (inactive) | > 100 µM (inactive) | > 100 µM (inactive) | > 100 µM (inactive) | > 100 µM (inactive) | > 100 µM (inactive) | > 100 µM (inactive)
CC1(C)OC2OC(COC(=O)C(c3ccccc3)c3ccccc3)C3OC(C)(C)OC3C2O1 (stereo not given) | 26.1 µM (inactive) | 29.7 µM (inactive) | 17.1 µM (inactive) | 31 µM (inactive) | > 10 µM (inactive) | > 10 µM (inactive) | 6.73 µM | 4.21 µM (inactive) | 61.8 µM (inactive) | > 10 µM (inactive) | 20.1 µM (inactive) | 21.6 µM (inactive) | > 10 µM (inactive) | 53 µM (inactive) | 16.9 µM (inactive) | 95.9 µM (inactive) | 46.8 µM (inactive) | 90.2 µM (inactive) | > 10 µM (inactive) | > 10 µM (inactive)
COc1ccc2nc3cc(Cl)ccc3c(NCCCCCC(=O)NC(COc3ccc4ccc5cccnc5c4n3)COc3ccc4ccc5cccnc5c4n3)c2c1 | 15.5 µM (inactive) | 15.5 µM (inactive) | 2.28 µM (inactive) | 18.3 µM (inactive) | 24.8 µM (inactive) | 8.24 µM (inactive) | 35.3 µM | 9.64 µM (inactive) | 24.4 µM (inactive) | 16.3 µM (inactive) | 21.4 µM (inactive) | 24.1 µM (inactive) | 28.5 µM (inactive) | 41.2 µM (inactive) | 17.9 µM (inactive) | 16.9 µM (inactive) | 25.3 µM (inactive) | 17.8 µM (inactive) | 18.1 µM (inactive) | 21.7 µM (inactive)
Cn1c(=O)c2[nH]c(/N=N/N3CCN(CCO)CC3)nc2n(C)c1=O | > 100 µM (inactive) | > 100 µM (inactive) | > 100 µM (inactive) | > 100 µM (inactive) | > 100 µM (inactive) | > 100 µM (inactive) | > 100 µM | > 100 µM (inactive) | > 100 µM (inactive) | > 100 µM (inactive) | > 100 µM (inactive) | > 100 µM (inactive) | > 100 µM (inactive) | > 100 µM (inactive) | > 100 µM (inactive) | > 100 µM (inactive) | > 100 µM (inactive) | > 100 µM (inactive) | > 100 µM (inactive) | > 100 µM (inactive)
O=Cc1cc(O)ccc1Br | > 100 µM (inactive) | 19.8 µM (inactive) | 3.08 µM (inactive) | 41.7 µM (inactive) | 65.6 µM (inactive) | 3.31 µM (inactive) | 3.15 µM | 1.88 µM (inactive) | 19 µM (inactive) | 28.1 µM (inactive) | 21.7 µM (inactive) | 38.4 µM (inactive) | 6.3 µM (inactive) | 5.05 µM (inactive) | 9.93 µM (inactive) | 4.3 µM (inactive) | 44.4 µM (inactive) | 19.8 µM (inactive) | 11.3 µM (inactive) | 41.5 µM (inactive)
O=[N+]([O-])c1ccc(C2=NOC(c3ccccc3F)N2C23CC4CC(CC(C4)C2)C3)cc1 (stereo not given) | > 100 µM (inactive) | > 100 µM (inactive) | > 100 µM (inactive) | > 100 µM (inactive) | > 100 µM (inactive) | > 100 µM (inactive) | > 100 µM | 25.9 µM (inactive) | 7.43 µM (inactive) | > 100 µM (inactive) | > 100 µM (inactive) | > 100 µM (inactive) | > 100 µM (inactive) | > 100 µM (inactive) | > 100 µM (inactive) | > 100 µM (inactive) | > 100 µM (inactive) | > 100 µM (inactive) | > 100 µM (inactive) | > 100 µM (inactive)
COc1ccc(Nc2nc(N)c(C(=O)c3c[nH]c4ccccc34)s2)cc1 | 1.41 µM (inactive) | 5.12 µM (inactive) | 2.16 µM (inactive) | 0.731 µM (active) | 3.05 µM (inactive) | 0.92 µM (active) | 0.433 µM | 1.07 µM (active) | 5.36 µM (inactive) | 1.13 µM (inactive) | 3.4 µM (inactive) | 0.0302 µM (active) | 0.745 µM (active) | 2.36 µM (inactive) | 6.84 µM (inactive) | 2.42 µM (inactive) | 3.98 µM (inactive) | 3.61 µM (inactive) | 5.56 µM (inactive) | 7.85 µM (inactive)
O=C1c2ccccc2C(=O)c2[nH]c(=O)c(/C=N/Nc3ccc([N+](=O)[O-])cc3)nc21 | 3.52 µM (inactive) | 13.2 µM (inactive) | > 35.5 µM (inactive) | 7.98 µM (inactive) | 24.1 µM (inactive) | 19.8 µM (inactive) | 3.67 µM | 8.79 µM (inactive) | 15.2 µM (inactive) | 14.4 µM (inactive) | 1.63 µM (inactive) | 3.23 µM (inactive) | 2.92 µM (inactive) | 15.8 µM (inactive) | 8.59 µM (inactive) | 5.93 µM (inactive) | 3.86 µM (inactive) | 11.9 µM (inactive) | 16.1 µM (inactive) | 2.15 µM (inactive)
CC1OC1C(=O)P(=O)(O)O (stereo not given) | > 100 µM (inactive) | > 100 µM (inactive) | > 100 µM (inactive) | > 100 µM (inactive) | > 100 µM (inactive) | > 100 µM (inactive) | > 100 µM | > 100 µM (inactive) | > 100 µM (inactive) | > 100 µM (inactive) | > 100 µM (inactive) | > 100 µM (inactive) | > 100 µM (inactive) | > 100 µM (inactive) | > 100 µM (inactive) | > 100 µM (inactive) | > 100 µM (inactive) | > 100 µM (inactive) | > 100 µM (inactive) | > 100 µM (inactive)
